# From US9181305B2, “Exendin-4 peptide analogues” (SANOFI, priority 2012, dated 2015)
# *1 amine or outer side, *2 acyl side, *3 side chain or, on linkers, in order; H or OH if unused. Where a SMILES comes first, the peptide text is derived from it. Side-chain parts run from the residue outwards. [ ]: non-standard residue; d: D form. The star is where a group is joined. γGlu = O=C(O)[C@H](CCC(=O)[*:2])N[*:1]; Palmitoyl = CCCCCCCCCCCCCCCC(=O)*; Aib = CC(C)(N)C(=O)O
# Target: T1, human GLP-1 receptor (hGLP-1 R) (Homo sapiens, UniProt P43220)
# T1 construct: expressed in transfected cells; host or cells: HEK-293
# T1 sequence (P43220 24-463): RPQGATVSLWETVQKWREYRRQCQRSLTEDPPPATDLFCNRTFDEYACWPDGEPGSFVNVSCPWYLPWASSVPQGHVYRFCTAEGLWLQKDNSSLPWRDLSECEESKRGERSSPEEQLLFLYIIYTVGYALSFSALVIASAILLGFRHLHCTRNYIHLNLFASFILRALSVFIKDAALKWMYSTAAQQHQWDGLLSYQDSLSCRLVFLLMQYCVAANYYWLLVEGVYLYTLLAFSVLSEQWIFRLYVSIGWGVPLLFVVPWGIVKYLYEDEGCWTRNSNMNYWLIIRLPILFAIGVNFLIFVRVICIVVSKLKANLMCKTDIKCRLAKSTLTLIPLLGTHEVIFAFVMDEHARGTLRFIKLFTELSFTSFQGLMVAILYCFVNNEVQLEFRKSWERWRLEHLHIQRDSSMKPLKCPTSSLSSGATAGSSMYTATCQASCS
# Assay: cAMP response (HTRF) of HEK-293 cells stably expressing human GLP-1 receptor
# Type: cell-based
# Conditions: HEK-293 cells expressing human GLP-1 receptor, cAMP formation
# Procedure: cAMP content of cells was determined using a kit from Cisbio Corp. (cat. no. 62AM4PEC) based on HTRF (Homogenous Time Resolved Fluorescence). For preparation, cells were split into T175 culture flasks and grown overnight to near confluency in medium (DMEM/10% FBS). Medium was then removed and cells washed with PBS lacking calcium and magnesium, followed by proteinase treatment with accutase (Sigma-Aldrich cat. no. A6964). Detached cells were washed and resuspended in assay buffer (1×HBSS; 20 mM HEPES, 0.1% BSA, 2 mM IBMX) and cellular density determined. […] For measurement, 25 μl of test compound in assay buffer was added to the wells, followed by incubation for 30 minutes at room temperature.
row,SMILES,EC50 [pM]
1,CCCCCCCCCCCCCCCC(=O)N[C@@H](CCC(=O)NCCCC[C@H](NC(=O)[C@H](CO)NC(=O)[C@@H]1CCCN1C(=O)[C@@H]1CCCN1C(=O)[C@@H]1CCCN1C(=O)[C@H](C)NC(=O)CNC(=O)[C@H](CO)NC(=O)[C@H](CO)NC(=O)[C@@H]1CCCN1C(=O)CNC(=O)CNC(=O)[C@H](CO)NC(=O)[C@H](CCCCN)NC(=O)[C@H](CC(C)C)NC(=O)[C@H](Cc1c[nH]c2ccccc12)NC(=O)[C@H](CCC(=O)O)NC(=O)[C@@H](NC(=O)[C@H](Cc1ccccc1)NC(=O)[C@H](CC(=O)O)NC(=O)[C@H](CCC(N)=O)NC(=O)[C@H](C)NC(=O)[C@H](C)NC(=O)[C@H](CCCNC(=N)N)NC(=O)[C@H](CO)NC(=O)[C@H](CCC(=O)O)NC(=O)[C@H](CCSC)NC(=O)[C@H](CCC(N)=O)NC(=O)[C@H](CCCCN)NC(=O)[C@H](CO)NC(=O)[C@H](CC(C)C)NC(=O)[C@H](CC(=O)O)NC(=O)[C@H](CO)NC(=O)[C@@H](NC(=O)[C@H](Cc1ccccc1)NC(=O)[C@@H](NC(=O)CNC(=O)[C@H](CCC(N)=O)NC(=O)[C@@H](CO)NC(=O)[C@@H](N)Cc1c[nH]cn1)[C@@H](C)O)[C@@H](C)O)[C@@H](C)CC)C(N)=O)C(=O)O [(103)] (H-H[dS]QGTFTSDLSKQMESRAAQDFIEWLKSGGPSSGAPPPSK([γGlu-Palmitoyl])-NH2),3.7
2,CCCCCCCCCCCCCCCC(=O)N[C@@H](CCC(=O)NCCCC[C@H](NC(=O)[C@H](CO)NC(=O)[C@@H]1CCCN1C(=O)[C@@H]1CCCN1C(=O)[C@@H]1CCCN1C(=O)[C@H](C)NC(=O)CNC(=O)[C@H](CO)NC(=O)[C@H](CO)NC(=O)[C@@H]1CCCN1C(=O)CNC(=O)CNC(=O)[C@H](C)NC(=O)[C@H](CCCCN)NC(=O)[C@H](CC(C)C)NC(=O)[C@H](Cc1c[nH]c2ccccc12)NC(=O)[C@H](CCC(=O)O)NC(=O)[C@@H](NC(=O)[C@H](Cc1ccccc1)NC(=O)[C@H](CC(=O)O)NC(=O)[C@H](CCCCN)NC(=O)[C@H](C)NC(=O)[C@H](C)NC(=O)[C@H](CCC(=O)O)NC(=O)[C@H](CCC(=O)O)NC(=O)[C@H](CCC(=O)O)NC(=O)[C@H](CCSC)NC(=O)[C@H](CCC(N)=O)NC(=O)[C@H](CCCCN)NC(=O)[C@H](CO)NC(=O)[C@H](CC(C)C)NC(=O)[C@H](CC(=O)O)NC(=O)[C@H](CO)NC(=O)[C@@H](NC(=O)[C@H](Cc1ccccc1)NC(=O)[C@@H](NC(=O)CNC(=O)[C@H](CCC(N)=O)NC(=O)[C@@H](CO)NC(=O)[C@@H](N)Cc1c[nH]cn1)[C@@H](C)O)[C@@H](C)O)[C@@H](C)CC)C(N)=O)C(=O)O [(110)] (H-H[dS]QGTFTSDLSKQMEEEAAKDFIEWLKAGGPSSGAPPPSK([γGlu-Palmitoyl])-NH2),2.9
3,CCCCCCCCCCCCCCCC(=O)N[C@@H](CCC(=O)NCCCC[C@H](NC(=O)[C@H](CO)NC(=O)[C@@H]1CCCN1C(=O)[C@@H]1CCCN1C(=O)[C@@H]1CCCN1C(=O)[C@H](C)NC(=O)CNC(=O)[C@H](CO)NC(=O)[C@H](CO)NC(=O)[C@@H]1CCCN1C(=O)CNC(=O)CNC(=O)[C@H](C)NC(=O)[C@H](CCCCN)NC(=O)[C@H](CC(C)C)NC(=O)[C@H](Cc1c[nH]c2ccccc12)NC(=O)[C@H](CCC(=O)O)NC(=O)[C@@H](NC(=O)[C@H](Cc1ccccc1)NC(=O)[C@H](CC(=O)O)NC(=O)[C@H](CCC(N)=O)NC(=O)[C@H](C)NC(=O)[C@H](C)NC(=O)C(C)(C)NC(=O)[C@H](CO)NC(=O)[C@H](CCC(=O)O)NC(=O)[C@H](CCSC)NC(=O)[C@H](CCC(N)=O)NC(=O)[C@H](CCCCN)NC(=O)[C@H](CO)NC(=O)[C@H](CC(C)C)NC(=O)[C@H](CC(=O)O)NC(=O)[C@H](CO)NC(=O)[C@@H](NC(=O)[C@H](Cc1ccccc1)NC(=O)[C@@H](NC(=O)CNC(=O)[C@H](CCC(N)=O)NC(=O)[C@@H](CO)NC(=O)[C@@H](N)Cc1c[nH]cn1)[C@@H](C)O)[C@@H](C)O)[C@@H](C)CC)C(N)=O)C(=O)O [(111)] (H-H[dS]QGTFTSDLSKQMES[Aib]AAQDFIEWLKAGGPSSGAPPPSK([γGlu-Palmitoyl])-NH2),4.1
4,CCCCCCCCCCCCCCCC(=O)N[C@@H](CCC(=O)NCCCC[C@H](NC(=O)[C@H](CO)NC(=O)[C@@H]1CCCN1C(=O)[C@@H]1CCCN1C(=O)[C@@H]1CCCN1C(=O)[C@H](C)NC(=O)CNC(=O)[C@H](CO)NC(=O)[C@H](CO)NC(=O)[C@@H]1CCCN1C(=O)CNC(=O)CNC(=O)[C@H](C)NC(=O)[C@H](CCCCN)NC(=O)[C@H](CC(C)C)NC(=O)[C@H](Cc1c[nH]c2ccccc12)NC(=O)[C@H](CCC(=O)O)NC(=O)[C@@H](NC(=O)[C@H](Cc1ccccc1)NC(=O)[C@H](CC(C)C)NC(=O)[C@H](CCC(N)=O)NC(=O)[C@H](C)NC(=O)[C@H](C)NC(=O)C(C)(C)NC(=O)[C@H](CO)NC(=O)[C@H](CCC(=O)O)NC(=O)[C@H](CCSC)NC(=O)[C@H](CCC(N)=O)NC(=O)[C@H](CCCCN)NC(=O)[C@H](CO)NC(=O)[C@H](CC(C)C)NC(=O)[C@H](CC(=O)O)NC(=O)[C@H](CO)NC(=O)[C@@H](NC(=O)[C@H](Cc1ccccc1)NC(=O)[C@@H](NC(=O)CNC(=O)[C@H](CCC(N)=O)NC(=O)[C@@H](CO)NC(=O)[C@@H](N)Cc1c[nH]cn1)[C@@H](C)O)[C@@H](C)O)[C@@H](C)CC)C(N)=O)C(=O)O [(112)] (H-H[dS]QGTFTSDLSKQMES[Aib]AAQLFIEWLKAGGPSSGAPPPSK([γGlu-Palmitoyl])-NH2),9.7
5,CCCCCCCCCCCCCCCC(=O)N[C@@H](CCC(=O)NCCCC[C@H](NC(=O)[C@H](CO)NC(=O)[C@@H]1CCCN1C(=O)[C@@H]1CCCN1C(=O)[C@@H]1CCCN1C(=O)[C@H](C)NC(=O)CNC(=O)[C@H](CO)NC(=O)[C@H](CO)NC(=O)[C@@H]1CCCN1C(=O)CNC(=O)CNC(=O)[C@H](C)NC(=O)[C@H](CCCCN)NC(=O)[C@H](CC(C)C)NC(=O)[C@H](Cc1c[nH]c2ccccc12)NC(=O)[C@H](CCC(=O)O)NC(=O)[C@@H](NC(=O)[C@H](Cc1ccccc1)NC(=O)[C@H](CC(C)C)NC(=O)[C@H](CCC(N)=O)NC(=O)[C@H](C)NC(=O)[C@H](C)NC(=O)[C@H](CCC(=O)O)NC(=O)[C@H](CO)NC(=O)[C@H](CCC(=O)O)NC(=O)[C@H](CCSC)NC(=O)[C@H](CCC(N)=O)NC(=O)[C@H](CCCCN)NC(=O)[C@H](CO)NC(=O)[C@H](CC(C)C)NC(=O)[C@H](CC(=O)O)NC(=O)[C@H](CO)NC(=O)[C@@H](NC(=O)[C@H](Cc1ccccc1)NC(=O)[C@@H](NC(=O)CNC(=O)[C@H](CCC(N)=O)NC(=O)[C@@H](CO)NC(=O)[C@@H](N)Cc1c[nH]cn1)[C@@H](C)O)[C@@H](C)O)[C@@H](C)CC)C(N)=O)C(=O)O [(114)] (H-H[dS]QGTFTSDLSKQMESEAAQLFIEWLKAGGPSSGAPPPSK([γGlu-Palmitoyl])-NH2),3.1
